Consider 23 substances from patent US20180362993A1, “ELICITOR-DERIVED PEPTIDES AND USE THEREOF” (Plant Health Care, Inc., priority 2017, published 2018).

Marks after values point to notes of the source that are not given here.

In one assay the test system is soy. Nature of the assay: Drought resistance in seed-treated soy. It counts as in vivo. To be noted: for % Change Dry Weight / % Change Fresh Weight: vs mock; for Result in the seed treated drought study for soy, in words: soy seed treatment. As for the experimental part:
The effectiveness of peptide treatment in reducing drought stress was assessed in soy using a seed treatment strategy. This strategy largely mirrors examples 3 and 4.
Seeds were first sieved using mesh screens to a uniform size (14-17 mesh). The seeds were then coated with a mixture of peptide and Unicoat™ seed coat polymer in a Hege 11 Liquid Seed Treater (Wintersteiger) according to manufacturer recommendations. […]
(§1) 3.5 inch pots were filled (approximately 0.2 L per pot) with Sunshine #1 mix (SunGro Horticulture), fertilized with 14-14-14 N,P,K Osmocote (Everris), and mixed for 20 minutes using a soil mixer M-5. Seeds were planted at a depth of 0.5 inch for germination. The pots were immediately irrigated by submergence then drained after about an hour. For each treatment group, 24 replicate seeds were planted. Plants were grown in a greenhouse under 16 hour light days at ˜75° F. and 8 hour dark nights at ˜65° F. Prior to drought conditions, the plants were well-watered.
(§2) Seven days after germination the heights of the plants were measured. This was determined as the distance between the soil surface and the shoot apical meristems (buds). The plants were randomized using a complete block design and subjected to a cyclic drought stress. Drought stress was imposed by withholding water for 3-4 days until the majority of plants were under medium to severe water stress. The severity of the stress was determined by the weight of the pot and visual determination of loss of turgor in the leaves (drooping). Once drought stress was attained, the pots were watered to full saturation. Full Saturation (100% pot capacity) is defined as the weight of the pot filled with water-saturated soil minus the weight of the filled pot prior to adding water. Drought stress was imposed for a total of 18 days.
At the end of the experiment (18 days after initiation of drought stress), the plant above the soil surface was then harvested for fresh and dry weights. Individual plants were cut near the soil surface and weighed immediately (fresh weight). The plants were then placed into labeled brown paper bags and dried in a 70° C. oven for 72 hours. A dry weight was then obtained. The following calculation was performed on the collected data: Fresh weight at harvest, and dry weight at harvest for the peptide-treated plants were expressed as a % change relative to the ‘mock’ treated plants.

For the next assay, the system named is corn. Nature of the assay: Drought resistance in seed-coated corn. The conditions noted are these: for % Change Dry Weight / % Change Fresh Weight: vs mock. The format is in vivo. Here is the method:
The effectiveness of peptide treatment in reducing the effects of drought stress was assessed in corn using a seed treatment strategy. This strategy largely mirrors example 2, except that the seeds were coated with a peptide formulation rather than a foliar spray application.
Seeds were first sieved using mesh screens to a uniform size (21-23/64 inches). The seeds were then coated with a mixture of peptide, Unicoat™ seed coat polymer, and a minimal volume of water in a Hege 11 Liquid Seed Treater (Wintersteiger) according to manufacturer recommendations. Seeds were coated with one of the following: (i) 0.12 μg peptide/seed, (ii) […], or (iii) a ‘mock’ treatment that included no peptide. The amount of peptide per seed assumes complete transfer of the peptide to seed surfaces in the seed coating chamber. Losses during coating were not considered.
as §1
as §2, with “Three” for “Seven”, “planting,” for “germination”, “the” for “the heights of the plants were measured. This was determined as the distance between the soil surface and the shoot apical meristems (buds). The”, “2-3” for “3-4”, “leaf curling.” for “loss of turgor in the leaves (drooping).”
At the end of the experiment (18 days after initiation of drought stress), the plant was then harvested for fresh and dry weights. Individual plants were cut near the soil surface and weighed immediately (fresh weight). The plants were then placed into labeled brown paper bags and dried in a 70° C. oven for 72 hours. A dry weight was then obtained.
The following calculation was performed on the collected data: Fresh weight at harvest and dry weight at harvest for the plants grown from peptide-treated seeds were expressed as a % change relative to the ‘mock’ treated plants.

[1] abbreviates: corn seed treatment 0.12 μg/seed.
The mark [2] stands for this setting: corn seed treatment 1.05 μg/seed.

With “SEEMSPMEQLMKIFADITQSLFEE (P13-36 peptide) [Peptide P13-36]”, the “% Change Dry Weight” value with soy (soy seed treatment 0.9 μg/seed) is −4.78%; with corn (setting [1]) it was 5.93** %; in the assay on corn (setting [2]), 7.95** %. The figures for the “% Change Fresh Weight” value in the assay on soy (soy seed treatment 0.9 μg/seed), with corn (setting [1]) and with corn (setting [2]) were 1.46%, 10.60** % and 12.38** %, respectively. Moreover, the “Drought tolerance activity in corn, result in words” value (shortened to “Drought tolerance activity in corn”) with corn (corn seed treatment) is listed as “supported corn drought tolerance”.
With “AGQTSGMSPMEQLMKIEADITQSLFGDQDG (P13-52 peptide) [Peptide P13-52]”, the “Result for dry weight, in words” value in the assay on corn (corn seed treatment) was “positive”. In addition, in the assay with corn (setting [2]), the “% Change Dry Weight” value was 4.49** % and the “% Change Fresh Weight” value is listed as −5.08* %.
For “AGQTSGMSPMEELMKIFADITQSLFGDQDG (P13-45 peptide) [Peptide P13-45]”, in the assay on soy (soy seed treatment 0.9 μg/seed), the “% Change Dry Weight” value was 3.17% and the “% Change Fresh Weight” value is 3.6%. Also, in the assay on corn (setting [1]), the “% Change Dry Weight” value is given as 6.05* % and the “% Change Fresh Weight” value was 8.54** %.
As to “AGQTSGLSPLEQLLKIFADITQSLFG (P13-23 peptide) [Peptide P13-23]”, the entries for the “% Change Dry Weight” value in the assay with soy (soy seed treatment 0.1 μg/seed), in the assay on corn (setting [1]) and in the assay on corn (setting [2]) were 6.43%, 0.94% and 2.16%, respectively. Moreover, the “% Change Fresh Weight” value in the assay on soy (soy seed treatment 0.1 μg/seed) is reported as 5.08%; in the assay on corn (setting [1]), 4.89** %; in the assay with corn (setting [2]), 5.54** %. The “Drought tolerance activity in corn” value with corn (corn seed treatment) is “affords activity”.
Consider “SQEEEMEPMEQLMEIFEEIEQELFG (P13-26 peptide) [Peptide P13-26]”, for which the “% Change Dry Weight” value with soy (soy seed treatment 0.1 μg/seed) is recorded as 3.40%; in the assay on corn (setting [1]) it was 4.74** %; in the assay on corn (setting [2]), 5.92** %. In addition, the “% Change Fresh Weight” value with soy (soy seed treatment 0.1 μg/seed) was 2.04%; in the assay on corn (setting [1]), 3.77* %; in the assay on corn (setting [2]) it was 4.23* %. Besides, the “Drought tolerance activity in corn” value in the assay with corn (corn seed treatment) is on record as “preservation of activity”.
“P13-47: P13 peptide variant tested in corn seed treatment, SEQ ID NO: 69; sequence not printed in the text (AGQTSGESPMEQLMKIFADITQSLFGDQDG; P13-47 peptide) [Peptide P13-47]”: in the assay with corn (setting [2]), the “% Change Dry Weight” value is recorded as −1.34% and the “% Change Fresh Weight” value is reported as −3.42%.
As to “AGQTSGMSPMEQLMKIFADITQSLFGDQ (P13-17 peptide) [Peptide P13-17]”, the “Result in the seed treated drought study for soy, in words” value with soy was “significant results”. For the same substance, in the assay on soy (soy seed treatment 0.1 μg/seed), the “% Change Dry Weight” value is 9.48** % and the “% Change Fresh Weight” value is on record as 8.02* %. Further, in the assay on corn (setting [2]), the “% Change Dry Weight” value turned out to be 1.09% and the “% Change Fresh Weight” value was found to be 1.51%.
In the case of “AGQTSGMSPMEQLMEIFADITQSLFGDQDGR (P13-20 peptide) [Peptide P13-20]”, in the assay on soy (soy seed treatment 0.1 μg/seed), the “% Change Dry Weight” value is listed as −5.02% and the “% Change Fresh Weight” value was −5.86** %. Also, the “Drought tolerance activity in corn” value in the assay with corn (corn seed treatment) is given as “affords activity”. Also, in the assay on corn (setting [2]), the “% Change Dry Weight” value amounted to 3.23% and the “% Change Fresh Weight” value is recorded as 6.87** %.
In the case of “LEELEELLEIFEEIEEELF (P13-35 peptide) [Peptide P13-35]”, in the assay on soy (soy seed treatment 0.1 μg/seed), the “% Change Dry Weight” value is recorded as 2.56% and the “% Change Fresh Weight” value came to 1.55%. Further, the “Drought tolerance activity in corn” value in the assay on corn (corn seed treatment) was “preservation of activity”. In the assay with corn (setting [1]), the “% Change Dry Weight” value is 5.68** % and the “% Change Fresh Weight” value amounted to 2.45%.
For the substance “AGQTSGMSPLEQLMKIFADITQSLFGDQDG (P13-40 peptide) [Peptide P13-40]”, in the assay with soy, the “Result in the seed treated drought study for soy, in words” value is given as “significant results”. In addition, in the assay with soy (soy seed treatment 0.1 μg/seed), the “% Change Dry Weight” value is 10.27** % and the “% Change Fresh Weight” value is recorded as 12.53** %. Further, in the assay with corn (setting [2]), the “% Change Dry Weight” value was determined as 0.76% and the “% Change Fresh Weight” value is given as 5.86* %.
As for “SQTSGMSPMEQLMEIFADITQSLF (P13-25 peptide) [Peptide P13-25]”, in the assay on corn (setting [2]), the “% Change Dry Weight” value stood at 3.01% and the “% Change Fresh Weight” value stood at 2.63%.
Regarding “P13-55: P13 peptide variant tested in corn seed treatment, SEQ ID NO: 77; sequence not printed in the text (AGQTSGMSPMEQLMKIFADITQSLEGDQDG; P13-55 peptide) [Peptide P13-55]”, in the assay with corn (setting [1]), the “% Change Dry Weight” value is 0.81% and the “% Change Fresh Weight” value is −3.84%.
In the case of “AGQTSGMSPMEQLMEIFADITQSLFGDQDGK (P13-22 peptide) [Peptide P13-22]”, in the assay on soy (soy seed treatment 0.1 μg/seed), the “% Change Dry Weight” value turned out to be 4.36% and the “% Change Fresh Weight” value worked out at 4.91%. Moreover, in the assay with corn (setting [2]), the “% Change Dry Weight” value was 1.66% and the “% Change Fresh Weight” value amounted to 3.41%.
As for “P13-51: P13 peptide variant tested in corn seed treatment, SEQ ID NO: 73; sequence not printed in the text (AGQTSGMSPMEQLMKEFADITQSLFGDQDG; P13-51 peptide) [Peptide P13-51]”, in the assay with corn (setting [2]), the “% Change Dry Weight” value was determined as 0.64% and the “% Change Fresh Weight” value is −4.70%.
The like results for “AGQTSGMSPMEQLMEIFADITQSLFGDQR (P13-57 peptide) [Peptide P13-57]” were, in that order, −0.68% and 1.90%.
On to “P13-53: P13 peptide variant tested in corn seed treatment, SEQ ID NO: 75; sequence not printed in the text (AGQTSGMSPMEQLMKIFADETQSLFGDQDG; P13-53 peptide) [Peptide P13-53]”, for which, in the assay on corn (setting [1]), the “% Change Dry Weight” value was 0.48% and the “% Change Fresh Weight” value is on record as −2.19%.
The like results for “P13-54: P13 peptide variant tested in corn seed treatment, SEQ ID NO: 76; sequence not printed in the text (AGQTSGMSPMEQLMKIFADITQSEFGDQDG; P13-54 peptide) [Peptide P13-54]” were, in that order, −1.38% and −4.51* %.
For “P13-49: P13 peptide variant tested in corn seed treatment, SEQ ID NO: 71; sequence not printed in the text (AGQTSGMSPMEQEMKIFADITQSLFGDQDG; P13-49 peptide) [Peptide P13-49]”, in that order: 0.79% and −4.24%.
As for “P13-48: P13 peptide variant tested in corn seed treatment, SEQ ID NO: 70; sequence not printed in the text (AGQTSGMSPEEQLMKIFADITQSLFGDQDG; P13-48 peptide) [Peptide P13-48]”, in the assay with corn (setting [2]), the “% Change Dry Weight” value is recorded as −1.83% and the “% Change Fresh Weight” value is on record as −1.65%.
In the case of “AGQTSGMSPMEQLMEIFADITQSLFGDQDR (P13-56 peptide) [Peptide P13-56]”, in the assay with corn (setting [1]), the “% Change Dry Weight” value was found to be 0.44% and the “% Change Fresh Weight” value was 1.91%.
For “AGQTSGMSPMEQLMKILADITQSLLGDQDG (P13-33 peptide) [Peptide P13-33]”, the “Drought tolerance activity in corn” value with corn (corn seed treatment) was “negative”. In addition, in the assay on corn (setting [2]), the “% Change Dry Weight” value came out at 2.59% and the “% Change Fresh Weight” value is on record as −1.28%.
On to “P13-50: P13 peptide variant tested in corn seed treatment, SEQ ID NO: 72; sequence not printed in the text (AGQTSGMSPMEQLEKIFADITQSLFGDQDG; P13-50 peptide) [Peptide P13-50]”, for which, in the assay with corn (setting [1]), the “% Change Dry Weight” value worked out at 0.49% and the “% Change Fresh Weight” value is recorded as −3.95%.
In the case of “AGQTSGMSPMEQLMEIFADITQSLFGDR (P13-58 peptide) [Peptide P13-58]”, in the assay with corn (setting [1]), the “% Change Dry Weight” value stood at 2.83% and the “% Change Fresh Weight” value is reported as −4.07%.
